Assay results: US8895581B2, “1H-imidazo[4,5-c]quinolines” (Boehringer Ingelheim International GmbH, priority 2010, dated 2014)

What follows are molecules tested against Recombinant human PDK1 enzyme (aa 52-556) (Homo sapiens (Human), UniProt O15530) (assay: PDK1 kinase assay). Conditions: 25 μM ATP solution with gamma-P33-ATP, PDKtide substrate, 90 min at RT.
Assay type: biochemical
Description: The activity of the compounds according to the invention on the kinase PDK1 which inhibits the signal transduction pathway is determined in an in vitro kinase assay with recombinantly prepared protein:
Recombinant human PDK1 enzyme (aa 52-556) linked at its N-terminal end to His6 is isolated from baculovirus-infected insect cells. Purified enzyme may be obtained for example from the University of Dundee, Scotland. The following components are combined in a well of a 96-well round-based dish (Greiner bio-one, No. 650101): • 1. 15 μL of compound to be tested in varying concentrations (e.g. starting at 10 μM, and diluted in steps of 1:5) in APT buffer (50 mM Tris/Cl pH7.5; 0.05% β-mercaptoethanol; 10 mM Mg-acetate; 0.0166% Tween 20; 3.33% DMSO) • 2. 15 μL His6-PDK1 (aa 52-556) 3.33 ng/well) and PDKtide (KTFCGTPEYLAPEVRRE […]), synthesised by Pepceuticals Limited, Nottingham, United Kingdom; 25 μM final concentration); His6-PDK1 and PDKtide are together diluted accordingly in assay buffer (50 mM tris pH 7.5, 0.05% β-mercaptoethanol, 10 mM Mg-acetate); PDKtide is present in this mixture as an 83.3 μM solution. These 30 μl are routinely incubated for 30 min at RT. • 3. 20 μL ATP solution (25 μM ATP with 1.0 μCi/well gamma-P33-ATP). The final concentration of Tween 20 is 0.005%.
The reaction is started by adding the ATP solution and the mixture is incubated for 90 min at RT. At the start of the reaction the dishes are shaken gently. The reaction is stopped by the addition of 50 μL/well of 500 mM phosphoric acid (H3PO4) and incubated for about 20 min at RT. The precipitate is transferred by harvesting onto filter plates (96-well microtitre filter plate: UniFilter GF/C; Perkin Elmer; No. 6005174), then washed 6 times with 50 mM H3PO4 and dried at 60° C. Then the plate is stuck down with sealing tape, 25 μL/well of scintillation solution (Microscint 0; Perkin Elmer; No. 6013611) are added and the amount of P33 precipitated is measured using the Wallac Betacounter. The measured data are evaluated using Graphpad Prism software.

Chain of Recombinant human PDK1 enzyme (aa 52-556) (O15530 52-556): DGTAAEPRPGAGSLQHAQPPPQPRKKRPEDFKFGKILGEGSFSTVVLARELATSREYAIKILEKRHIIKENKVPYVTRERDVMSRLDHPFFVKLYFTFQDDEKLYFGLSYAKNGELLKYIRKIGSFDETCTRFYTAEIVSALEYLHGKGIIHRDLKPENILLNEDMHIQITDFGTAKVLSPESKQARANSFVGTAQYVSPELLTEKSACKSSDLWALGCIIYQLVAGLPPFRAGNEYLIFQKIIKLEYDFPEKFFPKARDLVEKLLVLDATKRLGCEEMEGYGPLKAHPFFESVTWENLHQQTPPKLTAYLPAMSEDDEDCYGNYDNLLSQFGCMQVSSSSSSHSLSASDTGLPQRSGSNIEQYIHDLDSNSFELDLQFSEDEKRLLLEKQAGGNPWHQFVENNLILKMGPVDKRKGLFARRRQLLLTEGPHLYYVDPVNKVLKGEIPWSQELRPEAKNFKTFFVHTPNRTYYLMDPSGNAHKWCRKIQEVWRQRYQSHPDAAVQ

Compound | IC50 [nM]
O=C(NCC#Cc1ccc2ncc3nc[nH]c3c2c1)c1cncn(Cc2ccc(F)c(F)c2)c1=O [I-1, 1-(3,4-difluoro-benzyl)-6-oxo-1,6-dihydro-pyrimidine-5-carboxylic acid [3-(1H-imidazo[4,5-c]quinolin-8-yl)-prop-2-ynyl]-amide] | 1
O=C(NCC#Cc1ccc2ncc3ncn(CCO)c3c2c1)c1cncn(Cc2ccc(F)c(F)c2)c1=O [I-2] | 4
O=C(NCC#Cc1ccc2ncc3ncn(C4CCC4)c3c2c1)c1cncn(Cc2ccc(F)c(F)c2)c1=O [I-3] | 4
O=C(NCC#Cc1ccc2ncc3ncn(CCCO)c3c2c1)c1cncn(Cc2ccc(F)c(F)c2)c1=O [I-4] | 2
CN(C)CCn1cnc2cnc3ccc(C#CCNC(=O)c4cncn(Cc5ccc(F)c(F)c5)c4=O)cc3c21 [I-5] | 50
CN1CC[C@@H](n2cnc3cnc4ccc(C#CCNC(=O)c5cncn(Cc6ccc(F)c(F)c6)c5=O)cc4c32)C1 [I-6] | 26
CN1CC[C@H](n2cnc3cnc4ccc(C#CCNC(=O)c5cncn(Cc6ccc(F)c(F)c6)c5=O)cc4c32)C1 [I-7] | 18
CN(C)CCCn1cnc2cnc3ccc(C#CCNC(=O)c4cncn(Cc5ccc(F)c(F)c5)c4=O)cc3c21 [I-8] | 16
CN1CCC[C@@H](n2cnc3cnc4ccc(C#CCNC(=O)c5cncn(Cc6ccc(F)c(F)c6)c5=O)cc4c32)C1 [I-9] | 10
CN1CCC(n2cnc3cnc4ccc(C#CCNC(=O)c5cncn(Cc6ccc(F)c(F)c6)c5=O)cc4c32)CC1 [I-10] | 2
CC(C)N1CCC(n2cnc3cnc4ccc(C#CCNC(=O)c5cncn(Cc6ccc(F)c(F)c6)c5=O)cc4c32)CC1 [I-11] | 11
O=C(NCC#Cc1ccc2ncc3ncn([C@H]4CCCNC4)c3c2c1)c1cncn(Cc2ccc(F)c(F)c2)c1=O [I-12] | 9
O=C(NCC#Cc1ccc2ncc3ncn([C@@H]4CCNC4)c3c2c1)c1cncn(Cc2ccc(F)c(F)c2)c1=O [I-13] | 16
O=C(NCC#Cc1ccc2ncc3ncn(C4CCNCC4)c3c2c1)c1cncn(Cc2ccc(F)c(F)c2)c1=O [I-14] | 8
O=C(NCC#Cc1ccc2ncc3ncn([C@H]4CCNC4)c3c2c1)c1cncn(Cc2ccc(F)c(F)c2)c1=O [I-15] | 28
Cc1cc(C(=O)NCC#Cc2ccc3ncc4nc(C)n(C(C)C)c4c3c2)c(=O)n([C@H](C)c2ccc(F)c(F)c2)n1 [II-1] | 2
Cc1nc2cnc3ccc(C#CCNC(=O)c4cccn(Cc5ccccc5)c4=O)cc3c2n1C(C)C [II-2] | 8
Cc1nc2cnc3ccc(C#CCNC(=O)c4cccn(Cc5ccc(F)c(F)c5)c4=O)cc3c2n1C(C)C [II-3] | 2
Cc1nc2cnc3ccc(C#CCNC(=O)c4cc(Cl)nn(Cc5ccc(F)c(F)c5)c4=O)cc3c2n1C(C)C [II-4] | 5
CCOc1cc(C(=O)NCC#Cc2ccc3ncc4nc(C)n(C(C)C)c4c3c2)c(=O)n(Cc2ccc(F)c(F)c2)n1 [II-5] | 4

Compound | IC50 [nM]
Cc1nc2cnc3ccc(C#CCNC(=O)c4cccn([C@H](CO)c5cccc(F)c5)c4=O)cc3c2n1C(C)C [II-6] | 1
Cc1nc2cnc3ccc(C#CCNC(=O)c4cccn([C@H](C)c5ccc(F)c(F)c5)c4=O)cc3c2n1C(C)C [II-7] | 55
Cc1nc2cnc3ccc(C#CCNC(=O)c4cccn([C@H](C)C5CCCCC5)c4=O)cc3c2n1C(C)C [II-8] | 507
Cc1nc2cnc3ccc(C#CCNC(=O)c4cccn([C@H](CO)c5ccc(F)c(F)c5)c4=O)cc3c2n1C(C)C [II-9] | 2
Cc1nc2cnc3ccc(C#CCNC(=O)c4cncn(Cc5ccc(F)c(F)c5)c4=O)cc3c2n1C(C)C [II-10] | 2
Cc1cc(C(=O)NCC#Cc2ccc3ncc4nc(C)n(C(C)C)c4c3c2)c(=O)n([C@@H](C)c2ccc(F)c(F)c2)n1 [II-11] | 70
CCc1c(C(=O)NCC#Cc2ccc3ncc4nc(C)n(C(C)C)c4c3c2)c(=O)n(Cc2ccc(F)c(F)c2)n1C [II-12] | 5
Cc1nc2cnc3ccc(C#CCNC(=O)c4cccn([C@@H](C)C5CCCCC5)c4=O)cc3c2n1C(C)C [II-14] | 34
Cc1nc2cnc3ccc(C#CCNC(=O)c4c(C)n(C)n(C(C)c5ccc(F)c(F)c5)c4=O)cc3c2n1C(C)C (stereo not drawn) [II-15] | 5
Cc1nc2cnc3ccc(C#CCNC(=O)c4c(C)n(C)n(Cc5ccc(F)c(F)c5)c4=O)cc3c2n1C(C)C [II-16] | 5
Cc1nc2cnc3ccc(C#CCNC(=O)c4cccn([C@@H](C)c5ccc(F)c(F)c5)c4=O)cc3c2n1C(C)C [II-17] | 1
Cc1nc2cnc3ccc(C#CCNC(=O)c4cccn(CC5CCCCC5)c4=O)cc3c2n1C(C)C [II-18] | 14
COc1cc(C(=O)NCC#Cc2ccc3ncc4nc(C)n(C(C)C)c4c3c2)c(=O)n(Cc2ccc(F)c(F)c2)n1 [II-19] | 1
Cc1nc2cnc3ccc(C#CCNC(=O)c4cccn([C@@H](CO)c5ccccc5)c4=O)cc3c2n1C(C)C [II-21] | 2
Cc1nc2cnc3ccc(C#CCNC(=O)c4cccn([C@@H](CN)c5ccccc5)c4=O)cc3c2n1C(C)C [II-22] | 16
Cc1nc2cnc3ccc(C#CCNC(=O)c4cccn(CC5C[C@@H]6CC[C@H]5C6)c4=O)cc3c2n1C(C)C (stereo partly drawn) [II-23] | 15
Cc1nc2cnc3ccc(C#CCNC(=O)c4cccn(CC5CCOCC5)c4=O)cc3c2n1C(C)C [II-24] | 590
Cc1nc2cnc3ccc(C#CCNC(=O)c4cccn(CC5CCCCO5)c4=O)cc3c2n1C(C)C (stereo not drawn) [II-25] | 1020
Cc1nc2cnc3ccc(C#CCNC(=O)c4cccn(CC5CCCC5)c4=O)cc3c2n1C(C)C [II-26] | 27
Cc1nc2cnc3ccc(C#CCNC(=O)c4cccn(CC5(O)CCCCC5)c4=O)cc3c2n1C(C)C [II-27] | 1100

Compound | IC50 [nM]
Cc1nc2cnc3ccc(C#CCNC(=O)c4cccn(C[C@H]5CCCC[C@H]5O)c4=O)cc3c2n1C(C)C [II-28] | 221
Cc1nc2cnc3ccc(C#CCNC(=O)c4cccn(CC5CCCOC5)c4=O)cc3c2n1C(C)C (stereo not drawn) [II-29] | 202
Cc1nc2cnc3ccc(C#CCNC(=O)c4cccn([C@@H](CN)c5ccc(F)c(F)c5)c4=O)cc3c2n1C(C)C [II-30] | 2
Cc1nc2cnc3ccc(C#CCNC(=O)c4cccn(Cc5ccc(F)c(F)c5)c4=O)cc3c2n1C1CCN(C(C)C)CC1 [II-31] | 8
Cc1nc2cnc3ccc(C#CCNC(=O)c4cccn([C@@H](C)c5ccc(F)c(F)c5)c4=O)cc3c2n1C1CCN(C(C)C)CC1 [II-32] | 3
Cc1nc2cnc3ccc(C#CCNC(=O)c4cccn(Cc5ccc(F)c(F)c5)c4=O)cc3c2n1C1CCN(C)CC1 [II-34] | 6
CC(C)N1CCC(n2cnc3cnc4ccc(C#CCNC(=O)c5cccn(Cc6ccc(F)c(F)c6)c5=O)cc4c32)CC1 [II-35] | 7
O=C(NCC#Cc1ccc2ncc3ncn([C@@H]4CCNC4)c3c2c1)c1cccn([C@H](CO)c2ccccc2)c1=O [III-1] | 18
CC(C)N1CCC(n2cnc3cnc4ccc(C#CCNC(=O)c5cccn([C@@H](C)c6ccc(F)c(F)c6)c5=O)cc4c32)CC1 [III-2] | 2
Cc1cc(C(=O)NCC#Cc2ccc3ncc4ncn([C@H]5CC[C@@H](N(C)C)CC5)c4c3c2)c(=O)n(Cc2ccc(F)c(F)c2)n1 [III-3] | 15
Cc1nc2cnc3ccc(C#CCNC(=O)c4ccnn(Cc5ccc(F)c(F)c5)c4=O)cc3c2n1C1CCN(C(C)C)CC1 [III-4] | 21
Cc1nc2cnc3ccc(C#CCNC(=O)c4cccn([C@@H](C)c5ccc(F)c(F)c5)c4=O)cc3c2n1[C@H]1CC[C@@H](N(C)C)CC1 [III-5] | 1
Cc1nc2cnc3ccc(C#CCNC(=O)c4cccn([C@@H](C)c5ccc(F)c(F)c5)c4=O)cc3c2n1C1CCN(C)CC1 [III-6] | 2
Cc1nc2cnc3ccc(C#CCNC(=O)c4cc(Cl)nn(Cc5ccc(F)c(F)c5)c4=O)cc3c2n1CCc1ccccc1 [III-7] | 7
O=C(NCC#Cc1ccc2ncc3ncn(C4CCNCC4)c3c2c1)c1cccn([C@H](CO)c2ccccc2)c1=O [III-8] | 2010
CN(C)CCn1cnc2cnc3ccc(C#CCNC(=O)c4cccn(Cc5ccccc5)c4=O)cc3c21 [III-10] | 277
O=C(NCC#Cc1ccc2ncc3ncn(CCO)c3c2c1)c1cccn(Cc2ccc(F)c(F)c2)c1=O [III-11] | 18
O=C(NCC#Cc1ccc2ncc3ncn(CCO)c3c2c1)c1cccn(Cc2ccccc2)c1=O [III-12] | 68
Cc1nc2cnc3ccc(C#CCNC(=O)c4cncn(Cc5ccc(F)c(F)c5)c4=O)cc3c2n1CCN(C)C [III-13] | 53
CN1CCC(n2cnc3cnc4ccc(C#CCNC(=O)c5cc(Cl)nn(Cc6ccc(F)c(F)c6)c5=O)cc4c32)CC1 [III-14] | 1
